PMC11331178 (Journal of Advanced Research, 2023)

Molecular target: T1, TFEB (Homo sapiens, UniProt P19484)
T1 sequence (P19484 1-476 limits assumed): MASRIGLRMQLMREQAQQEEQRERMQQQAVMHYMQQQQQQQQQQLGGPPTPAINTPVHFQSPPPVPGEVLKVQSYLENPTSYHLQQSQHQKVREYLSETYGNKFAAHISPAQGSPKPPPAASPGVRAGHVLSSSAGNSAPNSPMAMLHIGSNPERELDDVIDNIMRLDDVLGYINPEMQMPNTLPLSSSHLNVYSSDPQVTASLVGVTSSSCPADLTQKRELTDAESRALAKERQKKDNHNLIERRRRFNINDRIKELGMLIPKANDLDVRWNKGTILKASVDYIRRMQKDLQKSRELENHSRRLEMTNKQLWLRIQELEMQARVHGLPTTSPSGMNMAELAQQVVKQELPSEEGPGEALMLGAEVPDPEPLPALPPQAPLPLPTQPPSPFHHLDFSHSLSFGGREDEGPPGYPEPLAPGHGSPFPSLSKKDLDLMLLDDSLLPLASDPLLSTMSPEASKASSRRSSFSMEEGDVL
Test: SPR, Biacore S200, CM5 chip
Format: binding

C=C[C@]1(C)CC[C@@H](C(=C)C)C[C@H]1C(=C)C [β-ELE]
Kd: 83 µM
